ChEMBL document CHEMBL1201862, “PubChem BioAssay data set” (2004)
Calls of active or inactive are those of the source.

Columns and labels:
[1] = HEp-2 cell cytotoxicity, dose response, cytotoxicity control for RSV inhibitor project, HTS (AID 2410); assay type: functional; details: human respiratory syncytial virus
[2] = LGR2 antagonists, dose response, cell-based, HEK293, CRE-luciferase reporter, cherry pick, set 2 (AID 743343); assay type: functional;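 also: transfected cells were stimulated with diluted bursicon conditioned medium after compound addition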
[3] = MC4R antagonists, dose response, counter-screen for LGR2 antagonist project, cell-based, plate reader, cherry pick (AID 743444); assay type: functional;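 also: transfected HEK 293 cells stimulated with alpha-MSH peptide; potency of inhibitors of the alpha-MSH evoked signal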
[4] = NIH-3T3 fibroblast cytotoxicity, dose response, cytotoxicity control, cell-based, fluorescence, Alamar Blue, secondary assay (AID 2327); assay type: functional;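 also: NIH-3T3 mouse fibroblasts cultured with fluconazole at 8 µg/mL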
[5] = C. albicans growth with fluconazole, confirmation, fluorescence, retest (AID 2467); assay type: functional, cell-based
[6] = A549 cell cytotoxicity, dose response, cytotoxicity control, plate reader, cherry-pick, antagonist series (AID 743412); assay type: functional, cell-based
[7] = target: Luciferin 4-monooxygenase (Photinus pyralis, UniProt P08659); experiment: firefly luciferase enzyme inhibitors, dose response, biochemical, luminescence (AID 1891)
[8] = Luminescence Cell-Based Dose Confirmation HTS to Identify Inhibitors of Platelet Dense Granule Release. [Related pubchem assays: 1663 (Primary HTS), 1678 (Summary of Project)]; assay type: functional
[9] = microbe, parasite or virus in culture; assay type: functional; details: Mycobacterium tuberculosis
cells = assay type: functional
[10] = cytotoxicity toward DRD oncogenic fibroblasts, dose response, cell-based, non-viral oncogenic, luminescence (AID 1934); assay type: functional; details: Homo sapiens
BJ [11] = experiment: cytotoxicity toward BJ-TERT fibroblasts, dose response, cell-based, RAS-independent, luminescence (AID 1933); assay type: functional; details: Homo sapiens
BJ [12] = experiment: cytotoxicity toward BJ-TERT-LT-ST fibroblasts, dose response, cell-based, RAS-independent, luminescence (AID 1935); assay type: functional; details: Homo sapiens;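 also: BJ fibroblasts immortalized with TERT plus LT and ST oncogenes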
BJ [13] = experiment: cells; assay type: functional, cell-based; details: Homo sapiens
[14] = target: FAD-linked sulfhydryl oxidase ALR (Homo sapiens, UniProt P55789); experiment: inhibitors of human ALR sulfhydryl oxidase, dose response, biochemical, H2O2 detection, luminescence, cherry-pick (AID 493248)
[15] = target: T1, Heat shock factor protein 1 (Mus musculus, UniProt P38532); experiment: HSF1 potentiators in luciferase reporter cells, confirmation, cell-based, NIH3T3, luminescence, dose retest (AID 435004); assay type: functional;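 also: stress induced by proteasome inhibitor MG132 added 30 min after compound; luciferase reporter driven by HSF1 response element in NIH3T3 cells; actives raise luminescence as potentiators of the MG132 stress response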
T1 sequence (P38532 whole entry): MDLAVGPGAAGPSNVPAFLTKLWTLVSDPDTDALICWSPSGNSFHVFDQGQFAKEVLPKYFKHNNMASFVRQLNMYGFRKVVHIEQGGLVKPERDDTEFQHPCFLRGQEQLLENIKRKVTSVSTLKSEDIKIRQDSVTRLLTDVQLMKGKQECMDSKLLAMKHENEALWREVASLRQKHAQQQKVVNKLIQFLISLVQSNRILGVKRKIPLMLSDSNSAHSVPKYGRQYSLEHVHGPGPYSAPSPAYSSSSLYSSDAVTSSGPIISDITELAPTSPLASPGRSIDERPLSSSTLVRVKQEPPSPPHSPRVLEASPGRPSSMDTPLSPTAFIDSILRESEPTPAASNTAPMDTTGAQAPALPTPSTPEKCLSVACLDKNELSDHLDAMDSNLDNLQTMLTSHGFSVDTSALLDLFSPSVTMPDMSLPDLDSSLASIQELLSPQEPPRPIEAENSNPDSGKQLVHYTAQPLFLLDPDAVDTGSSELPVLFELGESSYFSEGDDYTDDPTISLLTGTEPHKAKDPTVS

[16] = Shn3 3'UTR reporter inhibitors, dose response, cell-based, Clone20 osteoblasts, firefly luciferase, cherry-picked (AID 624132); assay type: functional;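 also: firefly luciferase luminescence from reporter carrying the Shn3 3'UTR in osteoblasts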
[17] = control 3'UTR Renilla luciferase suppression, dose response, counter-screen for Shn3 inhibitor project, cell-based, Clone20-Shn3RL, cherry-picked (AID 624133); assay type: functional
[18] = cytotoxicity toward NIH3T3 fibroblasts, dose response, counter-screen, cell-based, ATP luminescence, mouse fibroblasts (AID 2010); assay type: functional;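 also: cells exposed to compound for about 90 hours before reading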
[19] = inhibitors of intracellular T. cruzi replication, confirmation, NIH3T3 host cells, beta-gal luminescence (AID 2044); assay type: functional, cell-based;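 also: intracellular parasites grown in NIH/3T3 mouse fibroblasts as host cells; luminescent beta-galactosidase reporter signal from transgenic T. cruzi replicating inside host cells; inhibitors lower the luminescence signal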
[20] = target: T2, Replicative DNA helicase DnaB (Mycobacterium tuberculosis, UniProt P9WMR3); experiment: DnaB intein splicing inhibitors, dose response, biochemical, cell-free fluorescence (AID 449749); assay type: functional
T2 sequence (P9WMR3 whole entry): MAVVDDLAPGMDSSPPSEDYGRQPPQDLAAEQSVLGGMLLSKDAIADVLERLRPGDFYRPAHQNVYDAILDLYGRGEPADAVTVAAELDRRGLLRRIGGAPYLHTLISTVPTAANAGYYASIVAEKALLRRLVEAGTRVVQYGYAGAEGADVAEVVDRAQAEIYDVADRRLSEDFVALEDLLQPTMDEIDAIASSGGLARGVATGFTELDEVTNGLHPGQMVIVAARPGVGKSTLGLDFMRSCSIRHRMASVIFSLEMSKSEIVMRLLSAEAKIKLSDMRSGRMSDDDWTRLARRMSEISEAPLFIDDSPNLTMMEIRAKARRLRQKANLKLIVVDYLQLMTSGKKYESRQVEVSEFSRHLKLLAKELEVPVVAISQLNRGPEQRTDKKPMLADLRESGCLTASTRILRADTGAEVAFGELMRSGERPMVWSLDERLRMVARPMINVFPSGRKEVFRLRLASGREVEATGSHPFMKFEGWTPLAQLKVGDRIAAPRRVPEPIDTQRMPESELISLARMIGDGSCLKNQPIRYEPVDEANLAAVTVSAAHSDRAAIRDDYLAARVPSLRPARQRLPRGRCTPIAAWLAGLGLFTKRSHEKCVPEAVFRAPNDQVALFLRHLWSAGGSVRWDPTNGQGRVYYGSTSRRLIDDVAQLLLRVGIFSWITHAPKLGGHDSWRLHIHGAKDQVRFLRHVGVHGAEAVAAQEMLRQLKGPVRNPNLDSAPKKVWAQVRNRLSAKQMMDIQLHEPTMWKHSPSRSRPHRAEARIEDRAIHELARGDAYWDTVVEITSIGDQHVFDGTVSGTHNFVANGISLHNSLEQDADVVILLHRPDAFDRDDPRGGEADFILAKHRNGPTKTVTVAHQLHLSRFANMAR

Protein RecA = target: T3, Protein RecA (Mycobacterium tuberculosis, UniProt P9WHJ3); experiment: Fluorescence Cell-Free Homogeneous Dose Retest to Identify Inhibitors of RecA-Intein Splicing Activity. [Related pubchem assays (depositor defined):AID2097, AID2223, AID489010, AID492950]; assay type: functional
T3 sequence (P9WHJ3 whole entry): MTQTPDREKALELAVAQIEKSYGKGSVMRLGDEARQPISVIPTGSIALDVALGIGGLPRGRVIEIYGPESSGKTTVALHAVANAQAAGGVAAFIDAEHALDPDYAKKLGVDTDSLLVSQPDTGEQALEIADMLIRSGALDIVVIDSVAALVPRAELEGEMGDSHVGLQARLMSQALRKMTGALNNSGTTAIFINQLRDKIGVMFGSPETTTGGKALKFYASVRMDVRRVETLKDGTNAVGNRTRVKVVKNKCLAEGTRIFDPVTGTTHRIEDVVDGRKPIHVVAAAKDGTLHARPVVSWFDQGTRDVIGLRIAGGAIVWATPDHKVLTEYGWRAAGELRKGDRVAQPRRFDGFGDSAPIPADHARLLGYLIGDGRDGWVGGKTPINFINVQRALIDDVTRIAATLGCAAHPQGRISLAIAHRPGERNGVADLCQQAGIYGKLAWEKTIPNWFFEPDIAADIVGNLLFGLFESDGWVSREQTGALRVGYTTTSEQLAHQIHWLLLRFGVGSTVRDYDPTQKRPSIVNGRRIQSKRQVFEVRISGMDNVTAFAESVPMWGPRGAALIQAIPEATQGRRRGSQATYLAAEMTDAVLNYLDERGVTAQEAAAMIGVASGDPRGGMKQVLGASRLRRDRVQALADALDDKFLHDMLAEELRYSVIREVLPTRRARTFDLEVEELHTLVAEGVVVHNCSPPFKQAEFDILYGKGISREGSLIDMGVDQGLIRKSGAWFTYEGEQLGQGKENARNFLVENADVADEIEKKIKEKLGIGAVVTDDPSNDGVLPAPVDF

Chain of FAD-linked sulfhydryl oxidase ALR (P55789 whole entry): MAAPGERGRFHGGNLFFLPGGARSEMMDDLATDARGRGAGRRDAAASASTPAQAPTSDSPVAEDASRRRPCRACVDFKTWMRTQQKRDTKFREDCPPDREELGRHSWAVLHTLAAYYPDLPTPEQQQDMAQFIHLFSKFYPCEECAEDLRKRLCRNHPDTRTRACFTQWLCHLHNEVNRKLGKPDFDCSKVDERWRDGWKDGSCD
Chain of Luciferin 4-monooxygenase (P08659 whole entry): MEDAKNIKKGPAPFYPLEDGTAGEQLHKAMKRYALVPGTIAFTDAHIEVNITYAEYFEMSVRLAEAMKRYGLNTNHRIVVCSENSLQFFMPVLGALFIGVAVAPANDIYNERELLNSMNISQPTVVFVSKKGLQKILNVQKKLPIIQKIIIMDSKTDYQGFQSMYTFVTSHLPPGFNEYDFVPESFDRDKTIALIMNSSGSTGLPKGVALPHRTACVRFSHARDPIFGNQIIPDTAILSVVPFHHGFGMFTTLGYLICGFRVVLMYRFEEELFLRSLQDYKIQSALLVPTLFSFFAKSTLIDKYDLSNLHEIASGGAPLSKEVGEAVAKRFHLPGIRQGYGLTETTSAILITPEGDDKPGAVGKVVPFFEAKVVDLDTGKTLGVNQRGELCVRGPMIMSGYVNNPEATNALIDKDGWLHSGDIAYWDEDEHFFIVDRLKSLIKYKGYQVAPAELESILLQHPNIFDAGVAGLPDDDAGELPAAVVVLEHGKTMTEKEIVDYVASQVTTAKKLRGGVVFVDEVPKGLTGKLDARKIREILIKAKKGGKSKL

Cc1ccc2nc(-c3ccc(NC(=O)COC(=O)c4ccco4)cc3)sc2c1
CC50 [1]: 14.1 µM (active)
AC50 [2]: 2.95 µM (active)
AC50 [3]: 3.55 µM (active)

CCOc1ccc2nc(NN=C3C(=O)CC(C)(C)CC3=O)sc2c1
EC50 [4]: > 160 µM (inactive)
EC50 [5]: 9.16 µM (active)

O=C(Nc1ccc(Cl)cc1)Nc1ccccc1C(=O)O
AC50 [6]: > 52 µM (inactive)
AC50 [2]: 9.59 µM (active)
EC50 [7]: < 0.088 µM (active)
AC50 [3]: 6.99 µM (active)
EC50 [8]: 5.21 µM (active)

CCOc1ccc(OCCSc2ccc(S(=O)(=O)N3CCN(C)CC3)cn2)cc1
CC50 [9]: > 40 µM (active)
IC50 (cells): 19.3 µM (active)

O=C(c1ccccc1)C1CN(Cc2ccccc2)CCC1(O)c1ccccc1 (stereo not given)
IC50 (cells): 18.7 µM (active)

O=C(NCC1CCCO1)c1cc2c([nH]c3ccccc32)c(-c2ccc(F)cc2)n1 (stereo not given)
EC50 [10]: 23.6 µM (active)
EC50 (BJ [11]): 30.7 µM (active)
EC50 (BJ [12]): > 150 µM (not active)
EC50 (BJ [13]): 23.9 µM (active)

Cc1cccc(N2CC(C(=O)Nc3ccccc3N3CCCC3)CC2=O)c1C (stereo not given)
AC50 [14]: 1.93 µM (active)

CCc1nnc(NC(=O)c2cc3ccccc3oc2=O)s1
IC50 (cells): 0.81 µM (active)

C=CCn1c(S)nnc1-c1cc(-c2ccccc2)sc1N
AC50 [14]: < 0.005 µM (active)
EC50 [15]: > 260 µM (inactive)

CC(C)C(=O)NCCSc1c[nH]c2ccccc12
AC50 [14]: 3.12 µM (active)

Cc1ccc(/C=N/NC(=O)c2ccc3ccccc3c2)s1
EC50 [10]: 18 µM (inconclusive)
EC50 (BJ [11]): 4.71 µM (inconclusive)
EC50 (BJ [12]): 62.1 µM (active)
EC50 (BJ [13]): 96.4 µM (inconclusive)

CC(=O)Nc1ccc(S(=O)(=O)N[C@@H](C)C(=O)N2CCN(c3ccccn3)CC2)cc1
AC50 [14]: 1.37 µM (active)

Cc1ccc(-n2c(S)nnc2-c2cnccn2)cc1
AC50 [14]: 6.42 µM (active)

CN(C)c1ncnc2c1C(c1ccccc1)C(C)(C)O2 (stereo not given)
AC50 [16]: > 70 µM (inactive)

CCOC(=O)Cc1csc(NC(=O)c2ccc3ncsc3c2)n1
EC50 [4]: > 160 µM (inactive)
EC50 [5]: > 38 µM (not active)

Cc1oc2cc3oc(=O)c(CC(=O)N[C@@H](C)C(=O)NC(Cc4ccc(Cl)cc4)C(=O)O)c(C)c3cc2c1C (stereo not given in full)
AC50 [14]: 94.3 µM (active)

CCCSc1cc(N)cc([N+](=O)[O-])c1
EC50 [4]: > 160 µM (inconclusive)
EC50 [5]: > 38 µM (not active)

Cc1cccc(C)c1NC(=O)COC(=O)CCc1c[nH]c2ccccc12
IC50 (cells): 9.65 µM (active)

COC(=O)c1ccc(N2CCN(S(=O)(=O)c3ccc(C)cc3)CC2)c([N+](=O)[O-])c1
AC50 [17]: 2.95 µM (active)
AC50 [16]: 3.88 µM (active)

CN(C)c1ccc(C(=O)N/N=C/c2cc(Br)cc(Br)c2O)cc1
EC50 [4]: 14 µM (active)
EC50 [5]: > 38 µM (not active)

Cc1ccc(NC2CCCN(C(=O)CCCN3CCCCC3=O)C2)cc1C (stereo not given)
AC50 [14]: 8.32 µM (active)

O/N=C\c1ccc(-c2ccccc2)o1
AC50 [14]: 6.45 µM (active)

COC(=O)[C@@]12CCCCN1[C@H](c1ccc(SC3CCCCC3)c(OC)c1)[C@@H]1C(=O)N(C)C(=O)[C@@H]12
AC50 [17]: 24.2 µM (active)
AC50 [16]: 21.4 µM (active)

O=C(Nc1ccc(Br)cc1)c1cc([N+](=O)[O-])cc([N+](=O)[O-])c1
EC50 [18]: > 60 µM (not active)
IC50 (cells): 11.4 µM (active)
EC50 [19]: 0.19 µM (active)

CC(C)(C)OC(=O)N/N=C\c1ccc(OC(=O)c2ccco2)cc1
AC50 [20]: 34.5 µM (active)
IC50 (cells): 39.5 µM (active)
EC50 (Protein RecA): 16.2 µM (active)

O=C(O)c1[nH]c2ccccc2c1NS(=O)(=O)c1ccc(F)cc1
AC50 [14]: 3.4 µM (active)

CCCCN(CCCC)S(=O)(=O)c1ccc(C(=O)Nc2nnc(COC)o2)cc1
EC50 [4]: > 150 µM (inconclusive)
EC50 [5]: 2.92 µM (active)

CCOC(=O)c1cccc(NC2c3ccccc3C(=O)N2Cc2ccco2)c1 (stereo not given)
AC50 [17]: 1.94 µM (active)
AC50 [16]: 4.26 µM (active)

COC(=O)CCn1c(C)cc(C(=O)COc2ccccc2C(N)=O)c1C
EC50 [10]: > 150 µM (not active)
EC50 (BJ [11]): 58.1 µM (active)
CC50 [1]: 9.72 µM (active)
EC50 (BJ [12]): > 150 µM (inconclusive)
EC50 (BJ [13]): > 150 µM (not active)
IC50 (cells): 19.8 µM (active)

Nc1ccc(-c2nc3cc(N)ccc3o2)cc1
AC50 [14]: 0.289 µM (active)
EC50 [7]: > 112 µM (not active)
EC50 [8]: 29.6 µM (active)

O=C(CCS(=O)(=O)c1ccccc1)Nc1nc2c(s1)CCCC2
CC50 [1]: 18.5 µM (active)
AC50 [17]: 25.2 µM (active)
